Data taken from PMC9814901, “One-pot synthesis of cyclic-aminotropiminium carboxylate derivatives with DNA binding and anticancer properties” (Communications Chemistry, 2022).

How the values were obtained:
human genomic DNA [1] = test: Microscale thermophoresis (MST) binding of cATC derivatives to human genomic DNA; conditions: cATC derivative 20 µM, human genomic DNA 40 fM to 75 pM
Source text: Further, we examined the effect of cATC derivatives (6a/6e/6j/6n) on the ct-DNA duplex structure by circular dichroism (CD) studies. We recorded the CD spectra of ct-DNA with the increasing concentration of cATC derivatives (SM, Fig. S24). […] Next, we examined the binding site of cATC derivative (ligand) at the DNA duplex structure by using AutoDock-Vina, a well-reported computational docking program. We performed docking of cATC derivatives (6a/6d/6k) crystal structure (ligand) with dodecamer DNA duplex crystal structure (PDB ID-1BNA) as the receptor. Our docking results strongly support the non-covalent interaction of cATC derivatives (6a/6d/6k) at the DNA-minor groove with the binding affinity ~7.0 Kcal/mole, mostly hydrophobic interactions (SM, Figs. S25–7, Table S8). […]
DNA was isolated from 10 × 10^6 HeLa cells by QIAmp DNA mini Kit (Qiagen, Germany). cATC derivatives (6e, 6j, and 6n dissolved in a mixture of 1X PBS containing 1% DMSO) and DNA ranging from a concentration of 40 fM to 75pM (resuspended in 1X TE with 0.05% Tween-20), was used for analyzing the interaction of cATC derivatives with DNA. […] 15 µl of the above mixture was loaded in capillaries and binding affinity was measured using the NanoTemper instrument followed by analysis through NanoTemper analysis 1.2.231 software.

ct-DNA duplex = test: Circular dichroism of ct-DNA with cATC derivatives; format: binding; conditions: increasing concentration of cATC derivatives
Source text: (§1) Further, we examined the effect of cATC derivatives (6a/6e/6j/6n) on the ct-DNA duplex structure by circular dichroism (CD) studies. We recorded the CD spectra of ct-DNA with the increasing concentration of cATC derivatives (SM, Fig. S24). […] Next, we examined the binding site of cATC derivative (ligand) at the DNA duplex structure by using AutoDock-Vina, a well-reported computational docking program. We performed docking of cATC derivatives (6a/6d/6k) crystal structure (ligand) with dodecamer DNA duplex crystal structure (PDB ID-1BNA) as the receptor. Our docking results strongly support the non-covalent interaction of cATC derivatives (6a/6d/6k) at the DNA-minor groove with the binding affinity ~7.0 Kcal/mole, mostly hydrophobic interactions (SM, Figs. S25–7, Table S8). […] Overall, cATC derivatives non-covalently bind with DNA duplex through the non-intercalative mode without affecting the native duplex structure. Next, we examined the DNA binding affinity of cATC derivatives (6e/6j/6n) by gel-electrophoresis. The different concentrations of human genomic DNA were treated with EtBr (control) and cATC derivatives (6e/6j/6n) and ran on 1% agarose gel (SM, Fig. S28A–D). […] Further, the Microscale thermophoresis (MST) technique was used to calculate the binding affinities of cATC derivatives (6e/6j/6n) (20 µM) with varying concentrations of human genomic DNA (40 fM to 75 pM).

[2] = tested on: p38-p53 pathway and EMT markers in HeLa cells; test: Western blot of p38-p53 pathway and EMT markers; format: cell-based
Experimental: In order to figure out the mechanism of apoptosis induction, we analyzed the effect of different concentrations of 6e (0 μM, 4 μM, 9 μM, 14 μM and 18 μM), 6j (0 μM, 5 μM, 10 μM, 15 μM and 19 μM), and 6n (0 μM, 5 μM, 10 μM, 15 μM and 19 μM) compounds on p38-p53 pathway.
Cell lysates were prepared from HeLa treated with compounds 6e, 6j, and 6n in ice-cold RIPA buffer (Thermo Scientific, USA), and supplemented with protease and phosphatase inhibitor cocktail (Thermo Scientific, USA). Protein quantification of cell lysates was done using BCA reagent (Thermo Scientific). 20 µg of protein samples were separated on a 12% SDS-PAGE and subsequently transferred onto a PVDF membrane (Merck Millipore, USA). The blots were probed with specific antibodies for p38 (1:1000, #9212, Cell Signaling Technology, USA), phospho-p38 (1:1000, #9211; Cell Signaling technology), p53 (1:1000, #9282, Cell signalling technology), phospho-p53 (1:1000, #9284, Cell Signaling technology), snail (1:1000, #C15D3, Cell Signaling technology), slug (1:1000, #C19G7, Cell signalling technology) and GAPDH (1:5000, #ABM22C5, Abgenex, India) followed by incubation with HRP tagged anti-mouse IgG secondary antibody (Abgenex) for GAPDH and HRP tagged anti-rabbit IgG secondary antibody (Abgenex) for p38, phospho-p38, p53, phospho-p53, snail and slug. The chemiluminescence signal was detected in ChemiDoc XRS + (Bio-Rad) using SuperSignal™ West Femto reagent (Thermo Scientific).

[3] = MTS cell viability assay in HEK293; format: cell-based; conditions: human, HEK293 cells, HEK293, 30 μM
Experimental: (§2) We investigated the effect of nine cATC derivatives (6b/6d/6e/6f/6i/6j/6k/6l/6n) on cell viability in cancer cell-line HeLa and transformed normal cell-line HEK293. We treated cells with the varying concentrations of the compounds ranging from 10 nM to 50 μM for 18 h (optimized).
(§3) MTS assay (CellTiter 96® AQueous One Solution Cell Proliferation Assay (Promega, USA) was used to determine the cell viability. HeLa and HEK293 cells (20,000 cells in each well) were plated in 96 well plate and treated with 6e, 6j, and 6n varying concentrations of the compounds ranging from 10 nM to 50 μM for 18 h. The assay was carried out according to the manufacturer’s instructions. Finally, the plate was read in Varioskan™ LUX multimode microplate reader (Thermo Fisher Scientific) at 490 nm.
(§4) Cell scavenging activity was calculated using the following formula:
(§5) OD(490nm) (control) – OD(490nm) (Test)/OD(490nm) (control) × 100%
(§6) Cell Viability of the cell was calculated using the following formula: […]

HEK293 cells = test: MTS cell viability assay in HEK293; format: cell-based; conditions: HEK293, 30 μM, 18 h
Experimental: as §2, §3, §4, §5, §6

human genomic DNA [4] = test: Agarose gel electrophoresis of human genomic DNA treated with cATC derivatives; format: binding; conditions: 1% agarose gel; EtBr control
Source text: as §1

Hill's coefficient (nH) (human genomic DNA [1]): 1.6
Structure (SMILES): Cc1cccc(C2C(C(=O)[O-])N(CCc3ccccc3)c3ccccc[c+]3N2Cc2ccccc2)c1 (centres unmarked) [Compound 6e]
effect on B-type duplex CD spectrum of ct-DNA (ct-DNA duplex): almost remained unchanged | E-Cadherin expression ([2]; dose-dependent, 0-19 µM): increased expression of E-Cadherin | expression of EMT markers (N-Cadherin, Snail, Slug) ([2]; dose-dependent, 0-19 µM): decreased expression of EMT markers | phospho-P53 and phospho-P38 levels ([2]; increasing concentration 0-18 μM (6e), 0-19 μM (6j, 6n)): gradual increase in phospho-P53 and phospho-P38 levels | viability at 18 h, 30 µM [3]: 38.8% | Growth inhibition (HEK293 cells): 61.1% | visibility of DNA-bound compound on agarose gel under UV light (human genomic DNA [4]): signal was equivalent to EtBr
